The target in this assay is T1, EphA8 (Homo sapiens, UniProt P29322).
T1 sequence (P29322 28-1005): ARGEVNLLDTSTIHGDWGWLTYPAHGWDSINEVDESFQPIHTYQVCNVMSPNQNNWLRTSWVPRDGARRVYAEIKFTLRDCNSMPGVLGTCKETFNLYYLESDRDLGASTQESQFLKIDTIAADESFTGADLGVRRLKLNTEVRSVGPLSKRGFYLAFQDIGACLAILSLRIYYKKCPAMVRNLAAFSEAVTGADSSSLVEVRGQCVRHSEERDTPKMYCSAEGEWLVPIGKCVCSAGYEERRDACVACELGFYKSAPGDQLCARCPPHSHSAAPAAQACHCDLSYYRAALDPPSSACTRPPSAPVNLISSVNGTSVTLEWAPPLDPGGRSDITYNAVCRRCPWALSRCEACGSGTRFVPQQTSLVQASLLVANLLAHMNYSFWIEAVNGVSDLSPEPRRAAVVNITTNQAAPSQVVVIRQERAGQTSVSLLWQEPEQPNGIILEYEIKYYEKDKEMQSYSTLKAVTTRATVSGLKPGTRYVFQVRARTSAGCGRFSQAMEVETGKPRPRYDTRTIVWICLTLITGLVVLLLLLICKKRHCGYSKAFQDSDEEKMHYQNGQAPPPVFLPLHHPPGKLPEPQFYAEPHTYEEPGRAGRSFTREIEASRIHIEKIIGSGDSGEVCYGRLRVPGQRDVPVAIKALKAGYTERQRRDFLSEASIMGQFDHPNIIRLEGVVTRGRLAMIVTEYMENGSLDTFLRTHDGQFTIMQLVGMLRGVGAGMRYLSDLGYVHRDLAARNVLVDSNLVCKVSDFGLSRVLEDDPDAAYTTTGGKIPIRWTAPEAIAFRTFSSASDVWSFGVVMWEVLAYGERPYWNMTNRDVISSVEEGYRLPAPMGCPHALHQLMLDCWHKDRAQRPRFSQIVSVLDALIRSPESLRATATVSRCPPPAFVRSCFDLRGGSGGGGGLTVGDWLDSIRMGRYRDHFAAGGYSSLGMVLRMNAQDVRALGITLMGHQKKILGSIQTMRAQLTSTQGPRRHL
Kind of assay: EphA8 Kinase Activity Assay. The class given is biochemical. The conditions noted are these: read-out: EphA8, % INH, at 30 uM. On the procedure: Nunc Maxisorb plates are coated with streptavidin by overnight incubation with 100 μL per well of 1 μg/ml Streptavidin in DPBS. Prior to the start of the experiment, the plates are washed with TBST (3×200 μL) and blocked for at least 1 hour by adding 150 μL of 5% BSA/TBST. The plates are washed with TBST (3×200 μL/well) and left dry immediately before the capture step.
The test articles and control (Staurosporine) are prepared using the following assay buffer @ 3× desired final concentration (50 mM Tris-HCl, 0.02 mg/ml BSA, 10 mM MgCl2, 0.1 mM Na3VO4, 1 mM EGTA, 12.5 μM ATP, 0.01% NP-40, 1 mM DTT in 10% glycerol/water). In a reaction plate are added rapidly 20 μl test article (or control) and 20 μl EphA8 (0.12 ng/μl final concentration). The plate is incubated for 15 minutes. To the reaction plate is added 20 μl of Pyk-2 (0.75 ng/μl final concentration). The plate is incubated at room temperature for one hour. From the reaction plate, 50 μl is transferred to the streptavidin coated plate. The capture plate is incubated at room temperature for 30 minutes, then washed 6× with TBST. To the capture plate is added 100 μL/well of Cell Signaling anti-phospho tyrosine at a dilution of 1:3000 in 2% BSA/TBST. The plate is incubated for one hour at room temperature then washed 6× with TBST. To the capture plate is added 100 μL/well of Alkaline Phosphatase Tagged Goat anti Mouse Antibody at a dilution of 1:4000 in 2% BSA/TBST. The plate is incubated for one hour at room temperature then washed 6× with TBST. The fluorescent readout is initiated by the addition of 100 μl/well of Attophos reagent (6 mg/10 mL). The reading is done on the Perkin Elmer Envision system.

`Cc1cccc(CN2CCN(c3nc(N)nc4[nH]cnc34)Cc3ccccc32)c1` [Compound 33, 6-[1-(3-methylbenzyl)-1,2,3,5-tetrahydro-4H-1,4-benzodiazepin-4-yl]-9H-purin-2-amine]: the inhibition at 30 µM was less than 50%.

Consider `Nc1nc(N2CCN(CCCc3ccccc3)c3ccccc3C2)c2nc[nH]c2n1` [Compound 40, 6-[1-(3-phenylpropyl)-1,2,3,5-tetrahydro-4H-1,4-benzodiazepin-4-yl]-9H-purin-2-amine], for which the inhibition at 30 µM is less than 50%.

For the compound `COc1cccc(CN2CCN(c3nc(N)nc4[nH]ncc34)Cc3ccccc32)c1` [Compound 1, 4-[1-(3-methoxybenzyl)-1,2,3,5-tetrahydro-4H-1,4-benzodiazepin-4-yl]-1H-pyrazolo[3,4-d]pyrimidin-6-amine], the inhibition at 30 µM was in the range of 50 to 79%.

In the case of `Nc1nc(N2CCN(CCCc3ccccc3)c3ccccc3C2)c2cn[nH]c2n1` [Compound 41, 4-[1-(3-phenylpropyl)-1,2,3,5-tetrahydro-4H-1,4-benzodiazepin-4-yl]-1H-pyrazolo[3,4-d]pyrimidin-6-amine], the inhibition at 30 µM is less than 50%.

`COc1ccc(OC)c(CN2CCN(c3nc(N)nc4[nH]cnc34)Cc3ccccc32)c1` [Compound 35, 6-[1-(2,5-dimethoxybenzyl)-1,2,3,5-tetrahydro-4H-1,4-benzodiazepin-4-yl]-9H-purin-2-amine]: the inhibition at 30 µM was less than 50%.

In the case of `Nc1nc(N2CCN(Cc3ccc(F)cc3F)c3ccccc3C2)c2cn[nH]c2n1` [Compound 38, 4-[1-(2,4-difluorobenzyl)-1,2,3,5-tetrahydro-4H-1,4-benzodiazepin-4-yl]-1H-pyrazolo[3,4-d]pyrimidin-6-amine], the inhibition at 30 µM is less than 50%.

For the compound `Cc1ccc(CCCN2CCN(c3nc(N)nc4[nH]ncc34)Cc3ccccc32)cc1` [Compound 45, 4-{1-[3-(4-methylphenyl)propyl]-1,2,3,5-tetrahydro-4H-1,4-benzodiazepin-4-yl}-1H-pyrazolo[3,4-d]pyrimidin-6-amine], the inhibition at 30 µM is 50 to 79%.

On to `Nc1nc(N2CCN(Cc3ccc(Cl)cc3Cl)c3ccccc3C2)c2nc[nH]c2n1` [Compound 31, 6-[1-(2,4-dichlorobenzyl)-1,2,3,5-tetrahydro-4H-1,4-benzodiazepin-4-yl]-9H-purin-2-amine], for which the inhibition at 30 µM is less than 50%.

On to `Nc1nc(N2CCN(Cc3ccc(F)cc3)c3ccccc3C2)c2nc[nH]c2n1` [Compound 15, 6-[1-(4-fluorobenzyl)-1,2,3,5-tetrahydro-4H-1,4-benzodiazepin-4-yl]-9H-purin-2-amine], for which the inhibition at 30 µM is less than 50%.

With `Cc1ccc(CCCN2CCN(c3nc(N)nc4[nH]cnc34)Cc3ccccc32)cc1` [Compound 44, 6-{1-[3-(4-methylphenyl)propyl]-1,2,3,5-tetrahydro-4H-1,4-benzodiazepin-4-yl}-9H-purin-2-amine], the inhibition at 30 µM was less than 50%.

In the case of `Nc1nc(N2CCN(Cc3cccc(C(F)(F)F)c3)c3ccccc3C2)c2nc[nH]c2n1` [Compound 20, 6-{1-[3-(trifluoromethyl)benzyl]-1,2,3,5-tetrahydro-4H-1,4-benzodiazepin-4-yl}-9H-purin-2-amine], the inhibition at 30 µM lay within 50 to 79%.

Regarding `COc1ccccc1CN1CCN(c2nc(N)nc3[nH]cnc23)Cc2ccccc21` [Compound 9, 6-[1-(2-methoxybenzyl)-1,2,3,5-tetrahydro-4H-1,4-benzodiazepin-4-yl]-9H-purin-2-amine], the inhibition at 30 µM is less than 50%.

For `Cc1ccc(CN2CCN(c3nc(N)nc4[nH]cnc34)Cc3ccccc32)cc1` [Compound 26, 6-[1-(4-methylbenzyl)-1,2,3,5-tetrahydro-4H-1,4-benzodiazepin-4-yl]-9H-purin-2-amine], the inhibition at 30 µM was less than 50%.

`Nc1nc(N2CCN(CCCc3cccc(Cl)c3)c3ccccc3C2)c2nc[nH]c2n1` [Compound 7, 6-{1-[3-(3-chlorophenyl)propyl]-1,2,3,5-tetrahydro-4H-1,4-benzodiazepin-4-yl}-9H-purin-2-amine]: the inhibition at 30 µM is less than 50%.

`COc1ccccc1CN1CCN(c2nc(N)nc3[nH]ncc23)Cc2ccccc21` [Compound 10, 4-[1-(2-methoxybenzyl)-1,2,3,5-tetrahydro-4H-1,4-benzodiazepin-4-yl]-1H-pyrazolo[3,4-d]pyrimidin-6-amine]: the inhibition at 30 µM is less than 50%.

Regarding `Nc1nc(N2CCN(Cc3cccc4ccccc34)c3ccccc3C2)c2nc[nH]c2n1` [Compound 17, 6-[1-(1-naphthylmethyl)-1,2,3,5-tetrahydro-4H-1,4-benzodiazepin-4-yl]-9H-purin-2-amine], the inhibition at 30 µM lay in the range of 50 to 79%.

For `Nc1nc(N2CCN(Cc3ccc(F)cc3)c3ccccc3C2)c2cn[nH]c2n1` [Compound 16, 4-[1-(4-fluorobenzyl)-1,2,3,5-tetrahydro-4H-1,4-benzodiazepin-4-yl]-1H-pyrazolo[3,4-d]pyrimidin-6-amine], the inhibition at 30 µM is 50 to 79%.

With `CC(C)c1ccc(CN2CCN(c3nc(N)nc4[nH]ncc34)Cc3ccccc32)cc1` [Compound 4, 4-[1-(4-isopropylbenzyl)-1,2,3,5-tetrahydro-4H-1,4-benzodiazepin-4-yl]-1H-pyrazolo[3,4-d]pyrimidin-6-amine], the inhibition at 30 µM is less than 50%.

Consider `COc1cc2c(cc1OC)C(c1cccc(Cl)c1F)N(c1nc(N)nc3[nH]cnc13)CC2` (centres unmarked) [Compound 49, 6-[1-(3-chloro-2-fluorophenyl)-6,7-dimethoxy-3,4-dihydroisoquinolin-2(1H)-yl]-9H-purin-2-amine], for which the inhibition at 30 µM was less than 50%.

As for `Nc1nc(N2CCN(Cc3ccccc3Cl)c3ccccc3C2)c2nc[nH]c2n1` [Compound 13, 6-[1-(2-chlorobenzyl)-1,2,3,5-tetrahydro-4H-1,4-benzodiazepin-4-yl]-9H-purin-2-amine], the inhibition at 30 µM is less than 50%.

Consider `Cc1cccc(CN2CCN(c3nc(N)nc4[nH]ncc34)Cc3ccccc32)c1` [Compound 34, 4-[1-(3-methylbenzyl)-1,2,3,5-tetrahydro-4H-1,4-benzodiazepin-4-yl]-1H-pyrazolo[3,4-d]pyrimidin-6-amine], for which the inhibition at 30 µM is less than 50%.

As for `Nc1nc(N2CCN(Cc3ccc(F)cc3F)c3ccccc3C2)c2nc[nH]c2n1` [Compound 37, 6-[1-(2,4-difluorobenzyl)-1,2,3,5-tetrahydro-4H-1,4-benzodiazepin-4-yl]-9H-purin-2-amine], the inhibition at 30 µM was less than 50%.

On to `Nc1nc(N2CCN(Cc3cccc(F)c3)c3ccccc3C2)c2cn[nH]c2n1` [Compound 6, 4-[1-(3-fluorobenzyl)-1,2,3,5-tetrahydro-4H-1,4-benzodiazepin-4-yl]-1H-pyrazolo[3,4-d]pyrimidin-6-amine], for which the inhibition at 30 µM was in the range of 50 to 79%.

Turning to `Nc1nc(N2CCN(Cc3cccc(Cl)c3)c3ccccc3C2)c2nc[nH]c2n1` [Compound 24, 6-[1-(3-chlorobenzyl)-1,2,3,5-tetrahydro-4H-1,4-benzodiazepin-4-yl]-9H-purin-2-amine], the inhibition at 30 µM fell in the range of 50 to 79%.

`Nc1nc(N2CCN(Cc3ccc(F)c(F)c3)c3ccccc3C2)c2cn[nH]c2n1` [Compound 47, 4-[1-(3,4-difluorobenzyl)-1,2,3,5-tetrahydro-4H-1,4-benzodiazepin-4-yl]-1H-pyrazolo[3,4-d]pyrimidin-6-amine]: the inhibition at 30 µM is less than 50%.

With `Cc1ccccc1CN1CCN(c2nc(N)nc3[nH]cnc23)Cc2ccccc21` [Compound 11, 6-[1-(2-methylbenzyl)-1,2,3,5-tetrahydro-4H-1,4-benzodiazepin-4-yl]-9H-purin-2-amine], the inhibition at 30 µM was less than 50%.

These data come from patent US8343961B2, “Substituted heterocyclic compounds” (ArQule, Inc., priority 2009, dated 2013).
